# How the values were obtained:
# Assay type in all cases: cell-based
# Escherichia coli = test: Preservative challenge test in cleanser base, plate count; details: inoculum about 1×10^5 to 1×10^6 cfu/mL, about 22° C., TN = too numerous to count; for Day-7 Plate Count, EC: 7 days after challenge; for Day-14 Plate Count, EC: 14 days after challenge
# Experimental: (§1) Several 200-gram samples of a cleanser base were admixed with a variety of preservative compositions, and challenged with selected bacteria and fungi (Escherichia coli, Pseudomonas aeruginosa, Staphylococcus aureus, Aspergillus niger, and Candida albicans) according to the following procedure:
# (§2) About 0.5 mL of an aqueous suspension containing about 1×10^6 to about 2×10^7 colony forming units-per-milliliter (cfu/mL) of Aspergillus niger in a pH 7.2 phosphate buffer was transferred to a tube containing about 9.5 mL of a sample of a cleanser base composition to provide an inoculum level of about 1×10^5 to about 1×10^6 cfu/mL. The same procedure was used to challenge samples of the cleanser base with Candida albicans and with a mixed culture of Escherichia coli, Pseudomonas aeruginosa, and Staphylococcus aureus, at about the same inoculum levels. The challenged samples were stored at an ambient room temperature of about 22° C. At 7 days and 14 days after challenge, aliquots from each sample were diluted according to the following procedure: about 1 mL of each challenged sample was aseptically transferred into a tube containing about 9 mL of Dey/Engley (D/E) neutralizing broth with thorough mixing to provide a dilution ratio of about 1:10. About […] of each of the 1:10 diluted samples was then aseptically transferred into separate tubes, each tube containing about 9 mL of sterile buffered saline solution, (3.5 g/L phosphoric acid in 0.9 wt. % NaCl solution, adjusted to pH 7.2 with 50 wt. % aqueous sodium hydroxide), with thorough mixing, to provide a dilution ratio of about 1:1000.
# (§3) Finally, each of the 1:10 diluted samples and each of the 1:1000 diluted samples were plated according to the following procedure: about 1 mL of each of the diluted samples was plated with Letheen agar (bacteria samples) or Sabouraud dextrose agar (yeast and mold samples). The Letheen agar plates were incubated at 35±2° C. for about 48 hours (about 2 days) in an inverted position, and the resulting microbial colonies were counted. The Sabouraud dextrose agar plates were incubated at 25±2° C. for about 120 hours (about 5 days) in an upright position and the resulting microbial colonies were counted.
# (§4) The formulations of the cleanser base and the D/E Neutralizing Broth used in these evaluations are provided in Table 1 and Table 2, respectively.
# Aspergillus niger = test: as above; details: inoculum about 1×10^5 to 1×10^6 cfu/mL, about 22° C.; for Day-7 Plate Count, AN: 7 days after challenge; for Day-14 Plate Count, AN: 14 days after challenge
# Experimental: as §1, §2, §3, §4
# Pseudomonas aeruginosa = test: as above; details: inoculum about 1×10^5 to 1×10^6 cfu/mL, about 22° C., TN = too numerous to count; for Day-7 Plate Count, PA: 7 days after challenge; for Day-14 Plate Count, PA: 14 days after challenge
# Experimental: as §1, §2, §3, §4
# Candida albicans = test: as above; details: inoculum about 1×10^5 to 1×10^6 cfu/mL, about 22° C.; for Day-7 Plate Count, CA: 7 days after challenge; for Day-14 Plate Count, CA: 14 days after challenge, TN = too numerous to count
# Experimental: as §1, §2, §3, §4
# Staphylococcus aureus = test: as above; details: inoculum about 1×10^5 to 1×10^6 cfu/mL, about 22° C.; for Day-7 Plate Count, SA: 7 days after challenge; for Day-14 Plate Count, SA: 14 days after challenge
# Experimental: as §1, §2, §3, §4
# P. aeruginosa 9027 = test: Minimum Inhibitory Concentration (MIC) evaluation, broth dilution; details: Mueller-Hinton broth, two-fold dilutions, about 35° C. for about 24 hours, visible growth
# Experimental: (§5) In this evaluation, nutrient broth solutions were made with different concentrations of the test compounds, and then all the solutions were spiked with the same concentration of test organism. Growth was indicated by a solution becoming hazy after 24 hours of incubation time. The highest dilution without observable growth is the Minimal Inhibitory Concentration (MIC).
# (§6) The following procedure was adopted from the Manual of Clinical Microbiology, 2nd Ed. published by the American Society for Microbiology, ISBN 0-914826-00-X.
# (§7) Prepare and sterilize Mueller-Hinton Broth (MH broth) (Fluka) per the manufacturer's instructions (dissolve 23 grams in one liter water and autoclave at 121° C. for 15 minutes minimum).
# (§8) The stock antimicrobial solution is diluted (in MH broth) to twice the highest final test concentration desired. Sterile 13×100 mm screw-capped culture tubes are used. Two-fold dilutions are made directly in the tubes. To the first tube is added 2 mL of the working solution of antimicrobial agent. To each remaining tube is added 1 mL of broth. Using aseptic technique, an amount of 1 mL is transferred from the first tube to the second tube and is thoroughly mixed. After thorough mixing, 1 mL is transferred from the second tube to the third tube. This process is repeated through the second to last tube, from which 1 mL is removed and discarded. The final tube receives no antimicrobial agent and serves as a growth control.
# (§9) Buffered saline (3.5 g/L phosphoric acid in a 0.9% NaCl solution, pH adjusted to 7.2 with 50 wt. % aqueous NaOH, sterilized by autoclave).
# (§10) The organisms are preferably lyophilized Microbiologics E^power E7 microorganisms (mean assay value of between 10 million and 100 million colony forming units or equivalent concentration). The final concentrations of the microorganism in the inoculum should be in the order of 10^6-10^7 cfu/mL.
# (§11) 1. Allow unopened vial of microorganism pellets to equilibrate to room temperature.
# (§12) 2. Warm 1 tube of 10 mL buffered saline per organism used to about 35-37° C.
# (§13) 3. Using sterile forceps, transfer 2 pellets to the saline and return unused pellets to storage.
# (§14) 4. Incubate the hydrated material at about 35-37° C. for about 30 minutes.
# (§15) 5. Vortex the vials until homogeneous.
# (§16) 6. Add 1.0 ml of the diluted culture suspension to each of the previously prepared tubes containing the preservative compositions. The final concentration of preservative is now one-half of the original concentration in each tube.
# (§17) All tubes were incubated at about 35° C. for about 24 hours. The tubes were then examined for visible signs of bacterial growth.
# (§18) The MIC values from Table 5 were then used to calculate the Fractional Inhibitory Concentration Index (FICI) (sometimes called the Synergy Index) of GCM and GCP versus the various individual test organisms using the following equation. FICI=(MICa/MICA)+(MICb/MICB)
# S. aureus 6538 = test: as above; details: Mueller-Hinton broth, two-fold dilutions, about 35° C. for about 24 hours, visible growth
# Experimental: as §5, §6, §7, §8, §9, §10, §11, §12, §13, §14, §15, §16, §17, §18
# A. niger 16404 = test: as above; details: Mueller-Hinton broth, two-fold dilutions, about 35° C. for about 24 hours, visible growth
# Experimental: as §5, §6, §7, §8, §9, §10, §11, §12, §13, §14, §15, §16, §17, §18
"MIC Values, P. aeruginosa (P. aeruginosa 9027)","MIC Values, S. aureus (S. aureus 6538)","MIC Values, A. niger (A. niger 16404)",Structure (SMILES),"Day-7 Plate Count, EC (Escherichia coli)","Day-14 Plate Count, EC (Escherichia coli)","Day-7 Plate Count, AN (Aspergillus niger)","Day-14 Plate Count, AN (Aspergillus niger)","Day-7 Plate Count, PA (Pseudomonas aeruginosa)","Day-14 Plate Count, PA (Pseudomonas aeruginosa)","Day-7 Plate Count, CA (Candida albicans)","Day-14 Plate Count, CA (Candida albicans)","Day-7 Plate Count, SA (Staphylococcus aureus)","Day-14 Plate Count, SA (Staphylococcus aureus)"
–,–,–,"Cn1sccc1=O [Ex. B, 2-methyl-4-isothiazolin-3-one]",155 cfu,10 cfu,1000 cfu,500 cfu,115 cfu,<10 cfu,10500 cfu,15000 cfu,215 cfu,6500 cfu
–,–,–,"CCCCCCCC(=O)OCC(O)CO (centres unmarked) [Ex. C, glyceryl caprylate]",15 cfu,10 cfu,1000 cfu,280 cfu,7500 cfu,117500 cfu,500 cfu,485 cfu,<10 cfu,1000 cfu
–,–,–,"OCCc1ccccc1 [Ex. D, phenethyl alcohol]",380 cfu,1000 cfu,25 cfu,<10 cfu,10 cfu,1000 cfu,91000 cfu,2000 cfu,7500 cfu,1000 cfu
–,–,–,"O=C([O-])c1ccccc1.[Na+] [Ex. E, sodium benzoate]",–,–,1500 cfu,3500 cfu,–,–,336500 cfu,–,9000 cfu,500 cfu
1.0%,1.0%,2.0%,"CCCCCCCC(=O)OCC(O)CO (centres unmarked) [GC, glyceryl caprylate]",–,–,–,–,–,–,–,–,–,–
0.9%,0.9%,1.0%,"OCCc1ccccc1 [PEA, phenethyl alcohol]",–,–,–,–,–,–,–,–,–,–

Structure (SMILES),"MIC Values, P. aeruginosa (P. aeruginosa 9027)","MIC Values, S. aureus (S. aureus 6538)","MIC Values, A. niger (A. niger 16404)","Day-7 Plate Count, EC (Escherichia coli)","Day-14 Plate Count, EC (Escherichia coli)","Day-7 Plate Count, AN (Aspergillus niger)","Day-14 Plate Count, AN (Aspergillus niger)","Day-7 Plate Count, PA (Pseudomonas aeruginosa)","Day-14 Plate Count, PA (Pseudomonas aeruginosa)","Day-7 Plate Count, CA (Candida albicans)","Day-14 Plate Count, CA (Candida albicans)","Day-7 Plate Count, SA (Staphylococcus aureus)","Day-14 Plate Count, SA (Staphylococcus aureus)"
"Cn1sccc1=O [MI, 2-methyl-4-isothiazolin-3-one]",0.008%,0.1%,0.1%,–,–,–,–,–,–,–,–,–,–

# — patent publication US8367079B2, “Liquid preservative compositions” (Rhodia Operations, priority 2008, dated 2013)
